In EP0409414B1, “Diaryl ether cycloalkanes” (IMPERIAL CHEMICAL INDUSTRIES PLC, priority 1989, dated 1991) one finds IC50 data, which are given here for two compounds.

The term IC50 denotes the point on the concentration scale where inhibition reaches its midpoint.

The structures appear in SMILES notation.

This test has as its target T1, 5-LO (Homo sapiens, UniProt P09917).
T1 construct: incubating a test compound with heparinised human blood, prior to challenge with the calcium ionophore A23187; endogenous in cells; host or cells: heparinised human whole blood (leukocytes)
T1 sequence (P09917 1-674): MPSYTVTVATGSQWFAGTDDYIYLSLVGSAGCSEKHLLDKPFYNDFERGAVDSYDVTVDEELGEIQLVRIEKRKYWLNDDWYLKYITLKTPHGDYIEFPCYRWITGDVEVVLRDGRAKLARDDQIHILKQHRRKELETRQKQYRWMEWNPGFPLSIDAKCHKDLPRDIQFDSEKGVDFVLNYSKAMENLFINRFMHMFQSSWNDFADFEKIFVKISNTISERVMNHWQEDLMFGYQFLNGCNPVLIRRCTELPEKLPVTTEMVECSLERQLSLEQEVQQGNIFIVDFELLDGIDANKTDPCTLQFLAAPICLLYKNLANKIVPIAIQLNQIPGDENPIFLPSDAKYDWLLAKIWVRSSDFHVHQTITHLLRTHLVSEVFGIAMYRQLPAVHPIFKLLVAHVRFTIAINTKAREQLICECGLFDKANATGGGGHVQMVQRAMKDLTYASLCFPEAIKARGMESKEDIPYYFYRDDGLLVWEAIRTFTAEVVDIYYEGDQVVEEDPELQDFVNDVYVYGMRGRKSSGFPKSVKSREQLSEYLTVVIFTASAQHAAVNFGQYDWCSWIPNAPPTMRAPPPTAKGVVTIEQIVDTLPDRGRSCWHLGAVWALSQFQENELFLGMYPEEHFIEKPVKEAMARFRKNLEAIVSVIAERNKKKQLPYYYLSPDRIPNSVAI
Kind of test: heparinised human blood challenged with calcium ionophore A23187, radioimmunoassay of LTB4 (test b). Format: cell-based. To be noted: individual compounds, read-out: IC50 against LTB4. Here is the method: As stated previously, the compounds of the formula I are inhibitors of the enzyme 5-LO. […] This test provides a measure of the intrinsic inhibitory properties against soluble 5-LO in an extracellular environment. • b) An in vitro assay system involving incubating a test compound with heparinised human blood, prior to challenge with the calcium ionophore A23187 and then indirectly measuring the inhibitory effects on 5-LO by assaying the amount of LTB4 using the specific radioimmunoassay described by Carey and Forder (F. Carey and R.A. Forder, Brit. […] The effects of a test compound on the enzyme cyclooxygenase (which is involved in the alternative metabolic pathway for arachidonic acid and gives rise to prostaglandins, thromboxanes and related metabolites) may be measured at the same time using the specific radioimmunoassay for thromboxane B2(TxB2) described by Carey and Forder (see above). […] It permits the selectivity of the inhibitory effect on 5-LO or cyclooxygenase to be assessed. • c) An ex vivo assay system, which is a variation of test b) above, involving administration of a test compound (usually orally as the suspension produced when a solution of the test compound in dimethylsulphoxide is added to carboxymethylcellulose), blood collection, heparinisation, challenge with A23187 and radioimmunoassay of LTB4 and TxB2. […]

As for `CO[C@H]1CCC[C@@]1(OC)c1cc(F)cc(Sc2ccc3ccccc3c2)c1` (racemic) [Example 1, (1RS,2SR)-1-[5-fluoro-3-(naphth-2-ylthio)phenyl]-1,2-dimethoxycyclopentane], the IC50 is around 200 nM.
For `C=CCO[C@@]1(c2cc(F)cc(Sc3ccc4ccccc4c3)c2)CCC[C@@H]1OC` (racemic) [Example 2, (1RS,2SR)-1-allyloxy-1-[5-fluoro-3-(naphth-2-ylthio)phenyl]-2-methoxycyclopentane], the 50% inhibitory concentration (IC50) was around 200 nM.
